Measurements from article PMC4861708 (Frontiers in Cell and Developmental Biology, 2016).
In brackets after ≈: the same amount, converted by molar mass. Where a SMILES comes first, the peptide text is derived from it. [ ]: non-standard residue; d: D form. The star is where a group is joined. Orn(α-tetramethylguanidino) = CN(C)C(=N[C@@H](CCCN)C(=O)*)N(C)C; Orn = NCCC[C@H](N)C(=O)O

Columns and labels:
in vitro [1] = conditions: mouse, mouse serum
Protocol: Peptide solutions (1 g/L) were added to mouse serum to obtain final concentrations of 70 mg/L peptide and incubated under constant shaking at 37°C. After 0, 1, 2, 3, and 6 h aliquots (95 μL) were precipitated with aqueous TCA (25 μL, 15% w/v), incubated for 10 min on ice, and centrifuged (5 min, 12,000 × g, Eppendorf mini spin centrifuge). An aliquot of the supernatant (95 μL) was neutralized with sodium hydroxide (8 μL, 1 mol/L) and diluted with aqueous acetonitrile solution (3% acetonitrile, 0.1% TFA; 200 μL). Peptides were quantified by the peak areas obtained by analytical RP-HPLC on a Jupiter C18-column (ID: 2 mm) using a linear aqueous acetonitrile gradient with 0.1% (v/v) TFA (absorbance recorded at 214 nm). Peak areas of all time points were normalized to the initial peak area obtained after “0 min incubation” (= 100%). Experiments were carried out as triplicates in parallel and half-life times were calculated using GraphPad Prism 5.0.

HEK293 cells = experiment: in vitro; format: cell-based, human; conditions: 24 h
Protocol: (§1) Human embryonic kidney (HEK293) and HeLa cells were cultured in Dulbecco's modified Eagle's/Ham's F-12 medium [DMEM/F-12 (1:1)] supplemented with FBS (10% v/v), penicillin, and streptomycin (1000 units each). Primary rat cardiomyocytes (Innoprot, Elexalde Derio, Spain) were grown in medium supplemented with FBS (20% v/v), horse serum (5% v/v), L-glutamine (2 mmol/L), sodium pyruvate (2 mmol/L), MEM non-essential amino acids (Gibco, 0.1 mmol/L), penicillin, and streptomycin (1000 units each). Surfaces for cardiomyocyte growth were coated with attachment factor first. Cells (20,000/well) were seeded into a 96-well plate (PS, sterile, flat bottom), incubated for 24 h (37°C, 5% CO2), and washed twice with PBS (100 μl/well) prior to adding colorless medium (88 μL) and peptide solution (12 μL; 5, 2.5, 1.25, […], and 0.625 g/L in PBS). Positive controls were triton X-100 (1%, v/v) and melittin (60 mg/L) as lytic peptide, whereas PBS (12%, v/v) served as negative control. After an incubation period of 24 h, supernatant (25 μL) was mixed with lactate dehydrogenase (LDH) substrate (175 μL; 0.57 mmol/L sodium pyruvate, 0.24 mmol/L NADH disodium salt, 32 mmol/L potassium dihydrogen phosphate, 66 mmol/L dipotassium phosphate) in 96-well plates (PS, sterile, flat bottom). Absorbance was recorded at 340 nm every 3 min for 30 min on the Paradigm microplate reader. Due to the total release of LDH upon triton X-100 treatment, the control contained high LDH concentrations resulting in a fast substrate turnover that was only linear for the first 6 min.
(§2) The MTT cell viability assay relied on the same cell culture. Remaining medium was replaced by a mixture of fresh colorless medium (100 μL) and MTT (10 μL; 5 g/L in PBS) and incubated for 4 h (37°C, 5% CO2). A solution of sodium dodecyl sulfate (100 μL; 10%, w/v) dissolved in hydrochloric acid (10 mmol/L) was added, incubated (16 h), and the absorbance recorded at 590 nm relative to the reference at 650 nm (Paradigm microplate reader). The relative cell viability was calculated by [(ODPeptide − ODTriton)/(ODPBS − ODTriton)] × 100% and half-maximal inhibitory concentrations (IC50) with an Excel-template from cell biology protocols (www.sciencegateway.org/ protocols/cellbio/drug/hcic50.htm). For statistical analysis an unpaired t-test was applied using GraphPad Prism 5.0.

E. coli DSM 1103 = experiment: Transmission electron microscopy, morphological changes; format: cell-based, Escherichia coli; conditions: 1 h
Protocol: Peptide-bacteria mixtures were fixed (2% glutaraldehyde, 5 mmol/L CaCl2, 10 mmol/L MgCl2 in 0.1 mol/L sodium cacodylate buffer, pH 7.4) overnight at 4°C. […] Samples were rinsed with distilled water (5 × 10 min), incubated with aqueous uranylacetate (0.5% w/v) for 1 h at 4°C, washed with distilled water (3 × 10 min), and embedded in Epon. The hardened blocks were sectioned (50 nm) on a UCT ultramicrotome (Leica, Vienna, Austria), stained with uranyl acetate and lead citrate on an AC20 system (Leica), and visualized at a Tecnai 12 electron microscope (FEI, Eindhoven, The Netherlands) at 80 kV. Morphological effects were quantified on average for 25 cells per condition.

HeLa cells = experiment: Flow cytometry, endocytosis inhibition with dynasore; format: cell-based; conditions: dynasore 0.2 mmol/L 45 min, peptide 40 μmol/L 30 min
Protocol: Fresh colorless medium (150 μL) supplemented with either dynasore (0.2 mmol/L) dissolved in DMSO (final concentration of 0.2% v/v) or DMSO (0.2% v/v) as vehicle control was added. After 45 min (37°C) the supernatant was replaced by fresh medium supplemented with either dynasore or DMSO at the same concentrations (144 μL), Cf-labeled peptide added (6 μL, 1 mmol/L in water), and incubated (30 min, 37°C). Cells were fixed and stained with Hoechst 33342 as described above.
HeLa cells (50,000 for endocytosis inhibition and 70,000 for uptake kinetics) suspended in DMEM/F-12 medium (300 μL; see above) were seeded into 48-well plates (PS, sterile, flat bottom) and incubated (23 ± 1 h) using the conditions described above. Cells were washed twice with PBS (300 μL/well) and fresh medium was added (144 μL).
Cell cultures were prepared and incubated in the presence of dynasore, as described for microscopy. Cells were washed, treated with trypsin, and fixed as described above, dissolved in FACS buffer, and analyzed the same day.

in vitro [2] = format: cell-based, human; conditions: human
Protocol: as §1, §2

CC(C)C[C@H](NC(=O)[C@H](CCCNC(=N)N)NC(=O)[C@@H]1CCCN1C(=O)[C@H](Cc1c[nH]cn1)NC(=O)[C@@H]1CCCN1C(=O)[C@@H]1CCCN1C(=O)[C@H](CCCNC(=N)N)NC(=O)[C@@H]1CCCN1C(=O)[C@H](CCCNC(=N)N)NC(=O)[C@@H]1CCCN1C(=O)[C@H](CCCN)NC(=O)[C@H](Cc1ccc(O)cc1)NC(=O)[C@@H](NC(=O)[C@@H]1CCCN1C(=O)[C@H](CCCNC(=N)N)NC(=O)[C@H](CCCN)NC(=O)[C@H](Cc1c[nH]c2ccccc12)NC(=O)[C@H](CCCN)NC(=O)[C@H](Cc1c[nH]c2ccccc12)NC(=O)[C@H](CCCN)NC(=O)[C@H](Cc1c[nH]c2ccccc12)NC(=O)[C@H](CCCN)N=C(N(C)C)N(C)C)C(C)C)C(=O)O [Api794, gu-O(WO)3RPVYOPRPRPPHPRL-OH] ({Orn(α-tetramethylguanidino)}-W[Orn]W[Orn]W[Orn]RPVY[Orn]PRPRPPHPRL-OH)
half-life at 70 mg/L (in vitro [1]; Half-life time against serum proteases, serum (abstract)): > 300 min
half-life at 70 mg/L (in vitro [1]; Half-life time mouse serum, 37°C): 311 min
IC50 on cell viability (HEK293 cells): 0.28 ± 0.03 g/L (≈ 94.4 µM)
Cell: r, ruptured (E. coli DSM 1103; 16 µg/mL): 0%
DNA/Ribosomes relocalized (E. coli DSM 1103; 16 µg/mL): 0%
Fragments: +++, long and thick (E. coli DSM 1103; 16 µg/mL): 0%
Fragments: ++, long and thin (E. coli DSM 1103; 16 µg/mL): 23%
Fragments: +, small and thin (E. coli DSM 1103; 16 µg/mL): 40%
Fragments: -, no (E. coli DSM 1103; 16 µg/mL): 37%
Fragments: LV, large vesicles (E. coli DSM 1103; 16 µg/mL): 0%
Membrane: i, intact (E. coli DSM 1103; 16 µg/mL): 33%
Membrane: w, wrinkled (E. coli DSM 1103; 16 µg/mL): 67%
Vesicle release strong (E. coli DSM 1103; 16 µg/mL): 100%
Cell: r, ruptured (E. coli DSM 1103; 64 µg/mL): 0%
DNA/Ribosomes relocalized (E. coli DSM 1103; 64 µg/mL): 0%
Fragments: +++, long and thick (E. coli DSM 1103; 64 µg/mL): 23%
Fragments: ++, long and thin (E. coli DSM 1103; 64 µg/mL): 33%
Fragments: +, small and thin (E. coli DSM 1103; 64 µg/mL): 27%
Fragments: -, no (E. coli DSM 1103; 64 µg/mL): 17%
Fragments: LV, large vesicles (E. coli DSM 1103; 64 µg/mL): 3%
Membrane: i, intact (E. coli DSM 1103; 64 µg/mL): 100%
Membrane: w, wrinkled (E. coli DSM 1103; 64 µg/mL): 0%
Vesicle release strong (E. coli DSM 1103; 64 µg/mL): 97%
Cell: r, ruptured (E. coli DSM 1103; 256 µg/mL): 0%
DNA/Ribosomes relocalized (E. coli DSM 1103; 256 µg/mL): 0%
Fragments: +++, long and thick (E. coli DSM 1103; 256 µg/mL): 3%
Fragments: ++, long and thin (E. coli DSM 1103; 256 µg/mL): 37%
Fragments: +, small and thin (E. coli DSM 1103; 256 µg/mL): 43%
Fragments: -, no (E. coli DSM 1103; 256 µg/mL): 17%
Fragments: LV, large vesicles (E. coli DSM 1103; 256 µg/mL): 93%
Membrane: i, intact (E. coli DSM 1103; 256 µg/mL): 3%
Membrane: w, wrinkled (E. coli DSM 1103; 256 µg/mL): 97%
Vesicle release strong (E. coli DSM 1103; 256 µg/mL): 97%
Cell: r, ruptured (E. coli DSM 1103; 512 µg/mL): 3%
DNA/Ribosomes relocalized (E. coli DSM 1103; 512 µg/mL): 30%
Fragments: +++, long and thick (E. coli DSM 1103; 512 µg/mL): 17%
Fragments: ++, long and thin (E. coli DSM 1103; 512 µg/mL): 30%
Fragments: +, small and thin (E. coli DSM 1103; 512 µg/mL): 37%
Fragments: -, no (E. coli DSM 1103; 512 µg/mL): 17%
Fragments: LV, large vesicles (E. coli DSM 1103; 512 µg/mL): 97%
Membrane: i, intact (E. coli DSM 1103; 512 µg/mL): 93%
Membrane: w, wrinkled (E. coli DSM 1103; 512 µg/mL): 7%
Vesicle release strong (E. coli DSM 1103; 512 µg/mL): 93%
Drop of GeoMean fluorescence (uptake) in the presence of dynasore vs vehicle control (HeLa cells): 50%

CC[C@H](C)[C@H](NC(=O)[C@H](Cc1ccc(O)cc1)NC(=O)[C@@H](NC(=O)[C@@H]1CCCN1C(=O)[C@H](CCCNC(=N)N)NC(=O)[C@H](CC(N)=O)NC(=O)[C@H](CC(N)=O)NC(=O)[C@H](CCCN)N=C(N(C)C)N(C)C)C(C)C)C(=O)N1CCC[C@H]1C(=O)N[C@@H](CCCNC(=N)N)C(=O)N1CCC[C@H]1C(=O)N[C@@H](CCCNC(=N)N)C(=O)N1CCC[C@H]1C(=O)N1CCC[C@H]1C(=O)N[C@@H](Cc1c[nH]cn1)C(=O)N1CCC[C@H]1C(=O)N[C@@H](CCCNC(=N)N)C(=O)N[C@@H](CC(C)C)C(=O)O [Api137, gu-ONNRPVYIPRPRPPHPRL-OH, reference compound] ({Orn(α-tetramethylguanidino)}-NNRPVYIPRPRPPHPRL-OH)
viability at 24 h, 0.6 g/L (in vitro [2]): 83 ± 3%
Cell: r, ruptured (E. coli DSM 1103; 8 µg/mL): 0%
DNA/Ribosomes relocalized (E. coli DSM 1103; 8 µg/mL): 17%
Fragments: +++, long and thick (E. coli DSM 1103; 8 µg/mL): 0%
Fragments: ++, long and thin (E. coli DSM 1103; 8 µg/mL): 27%
Fragments: +, small and thin (E. coli DSM 1103; 8 µg/mL): 30%
Fragments: -, no (E. coli DSM 1103; 8 µg/mL): 43%
Fragments: LV, large vesicles (E. coli DSM 1103; 8 µg/mL): 0%
Membrane: i, intact (E. coli DSM 1103; 8 µg/mL): 100%
Membrane: w, wrinkled (E. coli DSM 1103; 8 µg/mL): 0%
Vesicle release strong (E. coli DSM 1103; 8 µg/mL): 100%
Cell: r, ruptured (E. coli DSM 1103; 32 µg/mL): 0%
DNA/Ribosomes relocalized (E. coli DSM 1103; 32 µg/mL): 30%
Fragments: +++, long and thick (E. coli DSM 1103; 32 µg/mL): 0%
Fragments: ++, long and thin (E. coli DSM 1103; 32 µg/mL): 23%
Fragments: +, small and thin (E. coli DSM 1103; 32 µg/mL): 40%
Fragments: -, no (E. coli DSM 1103; 32 µg/mL): 37%
Fragments: LV, large vesicles (E. coli DSM 1103; 32 µg/mL): 0%
Membrane: i, intact (E. coli DSM 1103; 32 µg/mL): 97%
Membrane: w, wrinkled (E. coli DSM 1103; 32 µg/mL): 3%
Vesicle release strong (E. coli DSM 1103; 32 µg/mL): 100%
Cell: r, ruptured (E. coli DSM 1103; 128 µg/mL): 0%
DNA/Ribosomes relocalized (E. coli DSM 1103; 128 µg/mL): 0%
Fragments: +++, long and thick (E. coli DSM 1103; 128 µg/mL): 0%
Fragments: ++, long and thin (E. coli DSM 1103; 128 µg/mL): 42%
Fragments: +, small and thin (E. coli DSM 1103; 128 µg/mL): 54%
Fragments: -, no (E. coli DSM 1103; 128 µg/mL): 4%
Fragments: LV, large vesicles (E. coli DSM 1103; 128 µg/mL): 0%
Membrane: i, intact (E. coli DSM 1103; 128 µg/mL): 4%
Membrane: w, wrinkled (E. coli DSM 1103; 128 µg/mL): 96%
Vesicle release weak (E. coli DSM 1103; 128 µg/mL): 35%
Cell: r, ruptured (E. coli DSM 1103; 512 µg/mL): 0%
DNA/Ribosomes relocalized (E. coli DSM 1103; 512 µg/mL): 0%
Fragments: +++, long and thick (E. coli DSM 1103; 512 µg/mL): 0%
Fragments: ++, long and thin (E. coli DSM 1103; 512 µg/mL): 29%
Fragments: +, small and thin (E. coli DSM 1103; 512 µg/mL): 61%
Fragments: -, no (E. coli DSM 1103; 512 µg/mL): 11%
Fragments: LV, large vesicles (E. coli DSM 1103; 512 µg/mL): 0%
Membrane: i, intact (E. coli DSM 1103; 512 µg/mL): 32%
Membrane: w, wrinkled (E. coli DSM 1103; 512 µg/mL): 68%
Vesicle release weak (E. coli DSM 1103; 512 µg/mL): 50%
